smiles,measurement,setting,value
O=C(O)COc1ccc(Cl)cc1Cl,solubility (mole fraction),"in tetrachloromethane, 303.65 K",4.99e-05
same,solubility (mole fraction),"in tetrachloromethane, 310.65 K",0.000131
same,solubility (mole fraction),"in tetrachloromethane, 313.55 K",0.000193
same,solubility (mole fraction),"in tetrachloromethane, 318.75 K",0.000414
same,solubility (mole fraction),"in tetrachloromethane, 323.05 K",0.00074
same,solubility (mole fraction),"in tetrachloromethane, 328.25 K",0.00146
same,solubility (mole fraction),"in tetrachloromethane, 332.95 K",0.00259
same,solubility (mole fraction),"in tetrachloromethane, 338.05 K",0.00497
same,solubility (mole fraction),"in toluene, 294.15 K",0.00118
same,solubility (mole fraction),"in toluene, 298.65 K",0.00178
same,solubility (mole fraction),"in toluene, 303.15 K",0.00264
same,solubility (mole fraction),"in toluene, 308.45 K",0.00399
same,solubility (mole fraction),"in toluene, 313.25 K",0.00547
same,solubility (mole fraction),"in toluene, 318.75 K",0.00821
same,solubility (mole fraction),"in toluene, 323.15 K",0.0109
same,solubility (mole fraction),"in toluene, 328.85 K",0.015
same,solubility (mole fraction),"in toluene, 335.35 K",0.0207
same,solubility (mole fraction),"in toluene, 338.05 K",0.0235

# — BigSolDB 2.1
